Where two headings read alike, the source gives them in different places.
What was measured:
[1] = test system: acute HIV infection of T-lymphoid cells; test: Assay for inhibition of HIV replication (spread assay); type: cell-based; settings: Human immunodeficiency virus 1; inhibition of HIV replication in T-lymphoid cells
Method: An assay for the inhibition of acute HIV infection of T-lymphoid cells (alternatively referred to herein as the “spread assay”) was conducted in accordance with Vacca, J. P. et al., Proc. Natl. Acad. Sci. USA 1994, 91: 4096. […] The compounds of Examples 2-4 and 22 were not tested.

[2] = target: T1, mutant HIV reverse transcriptase, Y181C mutation (Human immunodeficiency virus type 1 group M subtype B, UniProt P04585, Y768C); test: Analogous RT inhibition assay, Y181C mutant; type: biochemical
T1 construct: made in house
Method: (§1) 100 μL reaction mixtures were initiated with a combination of primer-template substrate (10 nM final concentration) and dNTPs (0.6 μM dNTPs, 0.75 μM [^3H]-dGTP). The heterodimeric nucleic acid substrate was generated by annealing the DNA primer pD500 (described in Shaw-Reid et al., J. Biol. Chem., 278: 2777-2780; obtained from Integrated DNA Technologies) to t500, a 500 nucleotide RNA template created by in vitro transcription (see Shaw-Reid et al., J. Biol. Chem., 278: 2777-2780). After 1 hour incubation at 37° C., reactions were quenched by 10 μL streptavidin scintillation proximity assay beads (10 mg/mL, from Amersham Biosciences) in 0.5 M EDTA, pH 8. Microtiter plates were incubated an additional 10 minutes at 37° C. prior to quantification via Topcount (Packard).
(§2) Analogous assays were conducted substituting mutant HIV strains to determine the […] inhibition of compounds of the present invention against mutant HIV reverse transcriptase. In one strain the reverse transcriptase has the Y181C mutation and in the other strain the reverse transcriptase has the K103N mutation. The mutations were generated with the […] site-directed mutagenesis kit (Stratagene).

[3] = target: T2, mutant HIV reverse transcriptase, K103N mutation (Human immunodeficiency virus type 1 group M subtype B, UniProt P04585, K690N); test: Analogous RT inhibition assay, K103N mutant; type: biochemical
T2 construct: made in house
Method: as §1, §2

[4] = Y181C mutant RT, tested up to 20 micromolar, read-out: IC50, Y181C mutant assay
[5] = K103N mutant RT, tested up to 20 micromolar, read-out: IC50, K103N mutant assay

Structure (SMILES) | IC95 [1] | IC50 [2] | IC50 [3] | IC50 [2, 4] | IC50 [3, 5]
COCc1nc(-c2[nH]c3ccc(Cl)cc3c2S(=O)(=O)c2ccccc2)no1 [Example 1, 5-chloro-2-[5-(methoxymethyl)-1,2,4-oxadiazol-3-yl]-3-(phenylsulfonyl)-1H-indole] | < 1 µM | > 20 µM | > 20 µM | – | –
O=S(=O)(c1ccccc1)c1c(-c2nc(-c3ccccn3)cs2)[nH]c2ccc(Cl)cc12 [Example 3, 5-chloro-3-(phenylsulfonyl)-2-(4-pyridin-2-yl-1,3-thiazol-2-yl)-1H-indole] | – | – | – | > 20 µM | > 20 µM
O=S(=O)(c1ccccc1)c1c(-c2nc(-c3cccnc3)cs2)[nH]c2ccc(Cl)cc12 [Example 4, 5-chloro-3-(phenylsulfonyl)-2-(4-pyridin-3-yl-1,3-thiazol-2-yl)-1H-indole] | – | – | – | > 20 µM | > 20 µM
O=S(=O)(c1ccccc1)c1c(-c2noc(-c3ccccc3F)n2)[nH]c2ccc(Cl)cc12 [Example 7, 5-chloro-2-[5-(2-fluorophenyl)-1,2,4-oxadiazol-3-yl]-3-(phenylsulfonyl)-1H-indole] | < 1 µM | – | – | > 20 µM | > 20 µM
O=S(=O)(c1ccccc1)c1c(-c2noc([C@@H]3C[C@H]3c3ccccc3)n2)[nH]c2ccc(Cl)cc12 [Example 8, 5-chloro-2-{5-[(1R,2R)-2-phenylcyclopropyl]-1,2,4-oxadiazol-3-yl}-3-(phenylsulfonyl)-1H-indole] | 2.5 µM | – | – | > 20 µM | > 20 µM
O=S(=O)(c1ccccc1)c1c(-c2noc(COc3ccccc3)n2)[nH]c2ccc(Cl)cc12 [Example 9, 5-chloro-2-[5-(phenoxymethyl)-1,2,4-oxadiazol-3-yl]-3-(phenylsulfonyl)-1H-indole] | < 1 µM | – | – | > 20 µM | > 20 µM
O=S(=O)(c1ccccc1)c1c(-c2noc(-c3ccncc3)n2)[nH]c2ccc(Cl)cc12 [Example 10, 5-chloro-3-(phenylsulfonyl)-2-(5-pyridin-4-yl-1,2,4-oxadiazol-3-yl)-1H-indole] | < 1 µM | 1 to 20 µM | – | – | > 20 µM
O=S(=O)(c1ccccc1)c1c(-c2noc(-c3ccc(F)cc3F)n2)[nH]c2ccc(Cl)cc12 [Example 11, 5-chloro-2-[5-(2,4-difluorophenyl)-1,2,4-oxadiazol-3-yl]-3-(phenylsulfonyl)-1H-indole] | < 1 µM | – | – | > 20 µM | > 20 µM
Cc1nc(-c2[nH]c3ccc(Cl)cc3c2S(=O)(=O)c2ccccc2)no1 [Example 12, 5-chloro-2-(5-methyl-1,2,4-oxadiazol-3-yl)-3-(phenylsulfonyl)-1H-indole] | < 1 µM | – | – | > 20 µM | > 20 µM
O=S(=O)(c1ccccc1)c1c(-c2noc(C3CCC3)n2)[nH]c2ccc(Cl)cc12 [Example 13, 5-chloro-2-(5-cyclobutyl-1,2,4-oxadiazol-3-yl)-3-(phenylsulfonyl)-1H-indole] | < 1 µM | – | – | > 20 µM | > 20 µM
O=S(=O)(c1ccccc1)c1c(-c2noc(Cc3ccccc3)n2)[nH]c2ccc(Cl)cc12 [Example 14, 2-(5-benzyl-1,2,4-oxadiazol-3-yl)-5-chloro-3-(phenylsulfonyl)-1H-indole] | < 1 µM | – | – | > 20 µM | > 20 µM
CCc1nc(-c2[nH]c3ccc(Cl)cc3c2S(=O)(=O)c2ccccc2)no1 [Example 15, 5-chloro-2-(5-ethyl-1,2,4-oxadiazol-3-yl)-3-(phenylsulfonyl)-1H-indole] | < 1 µM | – | – | > 20 µM | > 20 µM
Cc1cnc(-c2[nH]c3ccc(Br)cc3c2S(=O)(=O)N2CCCC2)[nH]1 [Example 16, 5-Bromo-2-(4-methyl-1H-imidazol-2-yl)-3-(pyrrolidin-1-ylsulfonyl)-1H-indole] | < 1 µM | < 1 µM | – | – | < 1 µM
O=S(=O)(c1c(-c2nc3ccccc3[nH]2)[nH]c2ccc(Br)cc12)N1CCCC1 [Example 17, 2-[5-bromo-3-(pyrrolidin-1-ylsulfonyl)-1H-indol-2-yl]-1H-benzimidazole] | < 1 µM | < 1 µM | – | – | < 1 µM
